{
  "source": "patent US9005965B2",
  "about": "“Stem cells culture systems” (Hadasit Medical Research Services & Development Limited, priority 2004, dated 2015)",
  "assay_type_in_all_cases": "cell-based, human",
  "key": {"hESC-derived EBs [1]": {"test_system": "hESC-derived EBs", "assay": "EB formation in presence or absence of nicotinamide: morphology, size, cell number", "details": "for number of cells versus controls: comparable number of starting cells", "experimental": "(§1) Human ES cells were removed from the feeders by treatment with dispase (10 mg/ml; Gibco), and/or type IV collagenase (1 mg/ml; Gibco). The clusters of undifferentiated cells that were obtained were further triturated into smaller clumps within PBS. These clumps were cultured for various periods in suspension within bacteriological dishes precoated with 0.1% low melting temperature agarose in DMEM (Gibco), supplemented with 10-20% FCS (Biological Industries, Beit Haemek), 1 mM L-glutamine, 0.1 mM β-mercaptoethanol, 1% non-essential amino acid stock, 50 units/ml penicillin, 50 μg/ml streptomycin (all from Gibco Invitrogen Corporation products, USA) in the presence or absence of nicotinamide 10 mM (Sigma). In some experiments DMEM and FCS were replaced by 86% KO-DMEM and 14% KOSR or by Neurobasal medium supplemented by N2 (Gibco)."}, "hESC-derived EBs [2]": {"test_system": "hESC-derived EBs", "assay": "Immunocytochemical and RT-PCR analysis of EBs", "experimental": "EBs that were developed 4 weeks in suspension culture in the presence and absence of nicotinamide (NA), were fixed in 4% paraformaldehyde at room temperature overnight. The EBs were then concentrated at the bottom of a centrifuge tube and embedded in agar. The agar blocks were dehydrated, and embedded in paraffin. 5-micron sections were immuno-stained with anti-human cytokeratin-8 and anti-α-fetoprotein (both at 1:50, monoclonal mouse IgG, DAKO). Primary antibody localization was performed using Picture™ plus kit (Zymed). For RT PCR analysis, total RNA was collected from EBs that were developed 4 weeks in suspension culture in the presence and absence of nicotinamide (NA). Total RNA was isolated using TRI REAGENT (Sigma) and converted into complementary cDNA with M-MLV reverse transcriptase (Promega). PCR was carried out using standard protocols with Taq DNA Polymerase (Promega). Amplification conditions were as follows: denaturation at 94° C. for 60 seconds, annealing at 55-60° C. for 60 seconds, and extension at 72° C. for 60 seconds. The number of cycles was 35 Primer sequences and lengths of amplified products were: […]"}, "hESC-derived EBs [3]": {"test_system": "hESC-derived EBs", "assay": "Neural precursor marker expression in EBs (FACS, indirect immunofluorescence)", "experimental": "(§2) EBs were dissociated into smaller clusters mechanically with/without the aid of trypsin (0.025%, 3 mM EDTA in PBS) digestion. The small clusters of cells were plated on poly-D-lysine (30-70 kDa, 10 μg/ml; Sigma, St. Louis, Mo.) and laminin-coated (4 μg/ml; Sigma) glass coverslips and cultured for additional 3-5 weeks in the culture medium used for suspension culture of EBs or neural spheres. Differentiated cells within the outgrowth were fixed with 4% paraformaldehyde for 20 minutes at room temperature. Cell membranes were permeabilized with 0.2% Triton X100 (Sigma) in PBS for 5 minutes for immunostaining with ant-intracellular markers antibodies. The cells were incubated with the following primary antibodies: anti β-tubulin III (mouse monoclonal IgG2b, 1:2000, Sigma), anti human alphafetoprotein (mouse monoclonal IgG2a, 1:200, Sigma), anti human muscle actin (mouse monoclonal IgG1, 1:10, Dako) and anti human desmin (mouse monoclonal IgG1,κ, 1:10, Dako), anti-Pax6 (Developmental Studies Hybridoma Bank; mouse monoclonal IgG1, 1:100), anti-MITF (Lab Vision Corporation, Fremont, Calif.; mouse IgG1, 1:50), anti-RPE65 (Novus Biologicals, Littleton, Colo.; mouse IgG1, 1:300), anti-Bestrophin (Novus Biologicals, Littleton, Colo.; mouse IgG1, 1:150), anti-ZO-1 (Zymed Laboratories Inc., South San Francisco, Calif.; rabbit polyclonal, 1:10) and anti-CRALBP (kindly provided by John C. Saari, University of Washington, Seattle; rabbit polyclonal, 1:100)."}, "hESC-derived EBs [4]": {"test_system": "hESC-derived EBs", "assay": "Differentiation towards RPE (pigmented) cells within EBs", "experimental": "as §1\nDifferentiation into neural spheres was conducted according to the published protocol (Itsykson, P., et al. Derivation of neural precursors from human embryonic stem cells in the presence of noggin. Mol Cell Neurpsci 30, 24-36 (2005). Spheres were dissociated mechanically by trituration. Pigmented clusters of cells within EBs, differentiating 8-10 weeks were mechanically dissected by glass micropipettes or scalpel blades.\nas §2"}, "hESC-derived EBs [5]": {"test_system": "hESC-derived EBs", "assay": "Gene expression profile of EBs by affymetrix gene arrays"}, "cord-derived fibroblasts": {"test_system": "cord-derived fibroblasts", "assay": "Propagation of cord-derived feeders with FGF2 supplementation", "details": "medium supplemented with FGF2; FIG. 16", "experimental": "Term umbilical cord tissue was minced as above, and the small pieces of tissue were plated in the fibroblast culture medium, as described above. To promote the adherence of the tissue pieces to the culture dish, flasks were incubated upright overnight. Cells emanating from the tissue pieces were propagated as above."}, "[6]": {"details": "in the presence of NA, indirect immunofluorescence"}, "[7]": {"details": "4 weeks suspension culture, presence vs absence of NA"}},
  "note": "“Also recorded” adds a separate entry of the source.",
  "data": [
    {"compound": "NC(=O)c1cccnc1", "note": "[NA, nicotinamide]", "values": [
      {"measurement": "development of cystic structures in EBs", "setting": "hESC-derived EBs [1]; EBs cultured in the presence of RA and NA", "result": "infrequent; also recorded: blocked the effects of RA"},
      {"measurement": "morphology of differentiated cells within EBs", "setting": "hESC-derived EBs [1]; NA 10 mM", "result": "acquired the morphology of neural precursor cells"},
      {"measurement": "prolonged culture of EBs", "setting": "hESC-derived EBs [1]; NA treatment", "result": 12, "unit": "weeks"},
      {"measurement": "number of cells versus controls", "setting": "hESC-derived EBs [1]; after 2 weeks", "result": 5.4, "unit": "times"},
      {"measurement": "number of cells versus controls", "setting": "hESC-derived EBs [1]; after 4 weeks", "result": 33, "unit": "times"},
      {"measurement": "formation of cystic structures within EBs", "setting": "hESC-derived EBs [1]; chemically-defined medium (NBN2), 2-5 weeks", "result": "not observed"},
      {"measurement": "effect of RA on number of differentiated cells", "setting": "hESC-derived EBs [1]; medium with RA supplemented with NA", "result": "blocked"},
      {"measurement": "size of EBs (maximal diameter) versus EBs without NA", "setting": "hESC-derived EBs [1]; serum-free medium, two weeks of differentiation", "result": 1.7, "unit": "times"},
      {"measurement": "formation of cystic structures within EBs", "setting": "hESC-derived EBs [1]; serum-supplemented medium, NA 10 mM", "result": "not formed; also recorded: not observed"},
      {"measurement": "expression of cytokeratin-8 within EBs", "setting": "hESC-derived EBs [2]; 4 weeks in the presence of NA, immunocytochemistry", "result": "not demonstrated; also recorded: only a few cells"},
      {"measurement": "expression of α-fetoprotein within EBs", "setting": "hESC-derived EBs [2]; differentiation in the presence of NA, immunocytochemistry and RT-PCR", "result": "not detected; also recorded: suppressed; also recorded: only a few cells"},
      {"measurement": "percentage of cells expressing PSA-NCAM", "setting": "hESC-derived EBs [3]; 6 weeks in the presence of NA, FACS", "result": 85.5, "unit": "%"},
      {"measurement": "percentage of cells expressing nestin", "setting": "hESC-derived EBs [3]; [6]", "result": 58.3, "unit": "%"},
      {"measurement": "percentage of cells expressing β-tubulin III", "setting": "hESC-derived EBs [3]; [6]", "result": 67.8, "unit": "%"},
      {"measurement": "percentage of EBs that included clusters of pigmented cells", "setting": "hESC-derived EBs [4]; 5 weeks of differentiation in the presence of NA", "result": 34, "unit": "%"},
      {"measurement": "percentage of EBs that included clusters of pigmented cells", "setting": "hESC-derived EBs [4]; 6 weeks of differentiation in the presence of NA", "result": 59, "unit": "%"},
      {"measurement": "percentage of EBs that included clusters of pigmented cells", "setting": "hESC-derived EBs [4]; 12 weeks of differentiation in the presence of NA", "result": 70, "unit": "%"},
      {"measurement": "expression of the RPE markers RPE65 and MITF A", "setting": "hESC-derived EBs [4]; Real Time PCR, 6 weeks, versus control EBs", "result": "significantly increased; also recorded: induction"},
      {"measurement": "percentage of cells within the EBs that were pigmented", "setting": "hESC-derived EBs [4]; after 6 weeks of differentiation", "result": 9, "unit": "%"},
      {"measurement": "number of genes down-regulated", "setting": "hESC-derived EBs [5]; [7]", "result": 630, "unit": "genes"},
      {"measurement": "number of genes up- or down-regulated by at least two-fold", "setting": "hESC-derived EBs [5]; [7]", "result": 1072, "unit": "genes"},
      {"measurement": "number of genes up-regulated", "setting": "hESC-derived EBs [5]; [7]", "result": 442, "unit": "genes"},
      {"measurement": "expression of chordin-like-1 gene", "setting": "hESC-derived EBs [5]; gene arrays, confirmed by RT PCR", "result": "up-regulated"},
      {"measurement": "expression of LEFT A & B and PITX1", "setting": "hESC-derived EBs [5]; gene arrays, 4 weeks", "result": "down regulated"},
      {"measurement": "expression of Wnt signaling pathway genes (Wnt4, Wnt 2B, FZD1, FZD2, FZD3, FZD10)", "setting": "hESC-derived EBs [5]; gene arrays, 4 weeks", "result": "induced"},
      {"measurement": "expression of ZIC1", "setting": "hESC-derived EBs [5]; gene arrays, 4 weeks", "result": "remarkably up-regulated"},
      {"measurement": "expression of cytokeratins 7, 18, 19, 23", "setting": "hESC-derived EBs [5]; gene arrays, 4 weeks", "result": "suppressed"},
      {"measurement": "expression of α-fetoprotein and cytokeratin-8", "setting": "hESC-derived EBs [5]; gene arrays, 4 weeks", "result": "suppressed"}
    ]},
    {"compound": "FGF2: growth factor supplementing the medium", "values": [
      {"measurement": "proliferation of the fibroblasts", "setting": "cord-derived fibroblasts", "result": "could be augmented"}
    ]}
  ]
}
